In article PMC4474090 (Journal of pharmaceutical sciences, 2012):

Tests used:
Molt-3 T cells = settings: read-out: cytotoxicity IC50; LFA-1-expressing Molt-3 T cells; cited from earlier work
KB epithelial cells = settings: read-out: toxicity IC50; cited from earlier work
[1] = test system: rat adjuvant arthritis model; format: in vivo
[2] = test system: rat adjuvant arthritis model; experiment: Suppression of RA in rat adjuvant arthritis model; format: in vivo
[3] = test system: ICAM-1/LFA-1-mediated heterotypic T-cell adhesion; settings: compared with cIBR; cited from earlier work
[4] = test system: ICAM-1/LFA-1-mediated heterotypic T-cell adhesion; experiment: Inhibition of ICAM-1/LFA-1-mediated heterotypic T-cell adhesion; format: cell-based; settings: compared with CH7
[5] = 0.05 mg/kg i.v. once a day, Day 14

Q: What does the source list for `CN(Cc1cnc2nc(N)nc(N)c2n1)c1ccc(C(=O)N[C@@H](CCC(=O)O)C(=O)O)cc1` [MTX, Methotrexate]?
A: IC50 (Molt-3 T cells): 61 nM; IC50 (KB epithelial cells): 27 nM; spleen histology: pyogranulomatous inflammation ([1]; 0.05 mg/kg): multi-focal small areas of pyogranulomatous inflammation; animal body weight ([1]; arthritis animals, 0.05 mg/kg, days 0-14): lost weight after day 8; Rat Liver Weight ± SE ([1]; arthritis rats, 0.05 mg/kg i.v. once a day, Day 14): 6.1289 ± 0.1451 g; AUC Paw Ankle Diameter ± SE [2, 5]: 2.388 ± 0.028; Bone Resorption Score ± SE [2, 5]: 3.1 ± 0.4; Inflammation Score ± SE [2, 5]: 4.9 ± 0.1; ankle histology: bone resorption ([2]; 0.05 mg/kg, day 14, H&E): Moderate bone resorption was present across the physis; ankle histology: synovitis and periarticular inflammation ([2]; 0.05 mg/kg, day 14, H&E): severe synovitis (S) and periarticular inflammation; Paw Weight ± SE ([2]; arthritis rats, 0.05 mg/kg i.v. once a day day 0-14, Day 14): 3.5790 ± 0.0877 g

Q: With cyclo(1,6)PRGGSV [CH7] as the compound, how does the “activity in inhibiting ICAM-1/LFA-1-mediated heterotypic T-cell adhesion” value [3] read?
A: activity comparable to that of cIBR

Q: With cyclo(1,6)PRGGKV [CHK7] as the compound, how does the “cell adhesion inhibitory activity” value [4] read?
A: lower cell adhesion inhibitory activity than the parent CH7
